Laboratory results taken from ChEMBL document CHEMBL4043269, “Synthesis and structure activity relationships of carbamimidoylcarbamate derivatives as novel vascular adhesion protein-1 inhibitors” (Bioorg Med Chem, 2017).

Legend:
[1] = system: Rattus norvegicus; assay: In vivo inhibition of VAP-1 in Wistar rat plasma at 0.3 mg/kg, po after 6 hrs in presence of [14C]-benzylamine by liquid scintillation counting analysis relative to control; assay type: functional
[2] = Aqueous solubility of compound in Japanese pharmacopoeia second fluid at pH 6.8 at 130 uM after 20 hrs by HPLC analysis; assay type: physicochemical
[3] = target: T1, CYP1A2 (Homo sapiens, UniProt P05177); assay: Inhibition of CYP1A2 in human liver microsomes using phenacetin as substrate assessed as residual activity at 5 uM after 20 mins by HPLC analysis; assay type: ADME; details: probe phenacetin, read-out: Activity
T1 sequence (P05177 whole entry): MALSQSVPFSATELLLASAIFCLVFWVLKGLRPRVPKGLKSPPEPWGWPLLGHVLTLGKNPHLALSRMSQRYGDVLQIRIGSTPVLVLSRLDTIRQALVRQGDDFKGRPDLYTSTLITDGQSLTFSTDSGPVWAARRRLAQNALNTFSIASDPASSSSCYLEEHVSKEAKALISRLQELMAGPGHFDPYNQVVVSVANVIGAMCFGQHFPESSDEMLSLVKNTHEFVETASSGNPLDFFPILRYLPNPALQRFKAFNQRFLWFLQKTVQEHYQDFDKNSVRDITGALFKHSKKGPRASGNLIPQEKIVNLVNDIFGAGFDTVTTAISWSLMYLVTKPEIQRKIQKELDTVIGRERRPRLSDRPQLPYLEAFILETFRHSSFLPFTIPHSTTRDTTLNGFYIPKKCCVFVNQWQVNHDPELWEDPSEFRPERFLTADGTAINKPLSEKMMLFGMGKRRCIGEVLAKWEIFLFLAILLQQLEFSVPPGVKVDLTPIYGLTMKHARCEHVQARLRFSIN

[4] = target: T2, CYP2C8 (Homo sapiens, UniProt P10632); assay: Inhibition of CYP2C8 in human liver microsomes using amodiaquine as substrate assessed as residual activity at 5 uM after 20 mins by HPLC analysis; assay type: ADME; details: probe amodiaquine, read-out: Activity
T2 sequence (P10632 whole entry): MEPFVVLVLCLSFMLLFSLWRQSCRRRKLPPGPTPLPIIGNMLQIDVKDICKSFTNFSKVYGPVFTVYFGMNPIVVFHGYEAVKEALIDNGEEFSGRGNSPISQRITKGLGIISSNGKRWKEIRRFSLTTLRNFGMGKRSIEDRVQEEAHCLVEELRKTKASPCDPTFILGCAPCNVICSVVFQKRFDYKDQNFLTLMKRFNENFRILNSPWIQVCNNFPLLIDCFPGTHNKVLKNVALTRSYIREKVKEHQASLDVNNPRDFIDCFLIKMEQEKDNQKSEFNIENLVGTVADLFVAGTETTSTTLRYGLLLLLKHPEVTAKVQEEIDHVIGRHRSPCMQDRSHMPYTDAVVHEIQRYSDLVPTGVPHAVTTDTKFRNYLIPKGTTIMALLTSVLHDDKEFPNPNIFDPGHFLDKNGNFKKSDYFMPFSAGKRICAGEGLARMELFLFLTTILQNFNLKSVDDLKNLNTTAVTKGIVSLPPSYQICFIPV

[5] = target: CYP2C19 (Homo sapiens, UniProt P33261); assay: Inhibition of CYP2C19 in human liver microsomes using S-mephenytoin as substrate assessed as residual activity at 5 uM after 20 mins by HPLC analysis; assay type: ADME; details: probe S-mephenytoin, read-out: Activity
[6] = target: CYP2D6 (Homo sapiens, UniProt P10635); assay: Inhibition of CYP2D6 in human liver microsomes using dextromethorphan as substrate assessed as residual activity at 5 uM after 20 mins by HPLC analysis; assay type: ADME; details: probe dextromethorphan, read-out: Activity
[7] = target: CYP3A4 (Homo sapiens, UniProt P08684); assay: Inhibition of CYP3A4 in human liver microsomes using midazolam as substrate assessed as residual activity at 5 uM after 20 mins by HPLC analysis; assay type: ADME; details: probe midazolam, read-out: Activity
[8] = system: Rattus norvegicus; assay: In vivo inhibition of VAP-1 in Wistar rat plasma at 0.3 mg/kg, po after 1 hr in presence of [14C]-benzylamine by liquid scintillation counting analysis relative to control; assay type: functional
[9] = AUC in Beagle dog at 0.2 mg/kg, iv by LC-MS/MS analysis; assay type: ADME, organism-based, Canis lupus familiaris; details: in vivo
[10] = Half life in Beagle dog at 0.2 mg/kg, iv by LC-MS/MS analysis; assay type: ADME, organism-based, Canis lupus familiaris; details: in vivo
[11] = AUC in Sprague-Dawley rat at 1 mg/kg, iv by LC-MS/MS analysis; assay type: ADME, organism-based; details: in vivo
[12] = Half life in Sprague-Dawley rat at 1 mg/kg, iv by LC-MS/MS analysis; assay type: ADME, organism-based; details: in vivo
[13] = Volume of distribution at steady state in Sprague-Dawley rat at 1 mg/kg, iv by LC-MS/MS analysis; assay type: ADME, organism-based; details: in vivo, read-out: Vdss
[14] = Total clearance in Sprague-Dawley rat at 1 mg/kg, iv by LC-MS/MS analysis; assay type: ADME, organism-based; details: in vivo
[15] = Volume of distribution at steady state in Beagle dog at 0.2 mg/kg, iv by LC-MS/MS analysis; assay type: ADME, organism-based, Canis lupus familiaris; details: in vivo, read-out: Vdss
[16] = Total clearance in Beagle dog at 0.2 mg/kg, iv by LC-MS/MS analysis; assay type: ADME, organism-based, Canis lupus familiaris; details: in vivo
[17] = AUC in cynomolgus monkey at 0.2 mg/kg, iv by LC-MS/MS analysis; assay type: ADME, organism-based, Macaca fascicularis; details: in vivo
[18] = Half life in cynomolgus monkey at 0.2 mg/kg, iv by LC-MS/MS analysis; assay type: ADME, organism-based, Macaca fascicularis; details: in vivo
[19] = Volume of distribution at steady state in cynomolgus monkey at 0.2 mg/kg, iv by LC-MS/MS analysis; assay type: ADME, organism-based, Macaca fascicularis; details: in vivo, read-out: Vdss
[20] = Total clearance in cynomolgus monkey at 0.2 mg/kg, iv by LC-MS/MS analysis; assay type: ADME, organism-based, Macaca fascicularis; details: in vivo
[21] = AUC in Sprague-Dawley rat at 1 mg/kg, po by LC-MS/MS analysis; assay type: ADME, organism-based; details: in vivo
[22] = AUC in Beagle dog at 0.2 mg/kg, po by LC-MS/MS analysis; assay type: ADME, organism-based, Canis lupus familiaris; details: in vivo
[23] = AUC in cynomolgus monkey at 0.2 mg/kg, po by LC-MS/MS analysis; assay type: ADME, organism-based, Macaca fascicularis; details: in vivo
[24] = Cmax in Sprague-Dawley rat at 1 mg/kg, po by LC-MS/MS analysis; assay type: ADME, organism-based; design: dose 1 mg/kg, route oral; details: in vivo
[25] = Cmax in Beagle dog at 0.2 mg/kg, po by LC-MS/MS analysis; assay type: ADME, organism-based, Canis lupus familiaris; design: dose 0.2 mg/kg, route oral; details: in vivo
[26] = Cmax in cynomolgus monkey at 0.2 mg/kg, po by LC-MS/MS analysis; assay type: ADME, organism-based, Macaca fascicularis; design: dose 0.2 mg/kg, route oral; details: in vivo
[27] = Tmax in Sprague-Dawley rat at 1 mg/kg, po by LC-MS/MS analysis; assay type: ADME, organism-based; details: in vivo
[28] = Tmax in Beagle dog at 0.2 mg/kg, po by LC-MS/MS analysis; assay type: ADME, organism-based, Canis lupus familiaris; details: in vivo
[29] = Tmax in cynomolgus monkey at 0.2 mg/kg, po by LC-MS/MS analysis; assay type: ADME, organism-based, Macaca fascicularis; details: in vivo
[30] = Oral bioavailability in Sprague-Dawley rat at 1 mg/kg by LC-MS/MS analysis; assay type: ADME, organism-based; details: in vivo
[31] = Oral bioavailability in Beagle dog at 0.2 mg/kg by LC-MS/MS analysis; assay type: ADME, organism-based, Canis lupus familiaris; details: in vivo
[32] = Oral bioavailability in cynomolgus monkey at 0.2 mg/kg by LC-MS/MS analysis; assay type: ADME, organism-based, Macaca fascicularis; details: in vivo

Chain of CYP2D6 (P10635 whole entry): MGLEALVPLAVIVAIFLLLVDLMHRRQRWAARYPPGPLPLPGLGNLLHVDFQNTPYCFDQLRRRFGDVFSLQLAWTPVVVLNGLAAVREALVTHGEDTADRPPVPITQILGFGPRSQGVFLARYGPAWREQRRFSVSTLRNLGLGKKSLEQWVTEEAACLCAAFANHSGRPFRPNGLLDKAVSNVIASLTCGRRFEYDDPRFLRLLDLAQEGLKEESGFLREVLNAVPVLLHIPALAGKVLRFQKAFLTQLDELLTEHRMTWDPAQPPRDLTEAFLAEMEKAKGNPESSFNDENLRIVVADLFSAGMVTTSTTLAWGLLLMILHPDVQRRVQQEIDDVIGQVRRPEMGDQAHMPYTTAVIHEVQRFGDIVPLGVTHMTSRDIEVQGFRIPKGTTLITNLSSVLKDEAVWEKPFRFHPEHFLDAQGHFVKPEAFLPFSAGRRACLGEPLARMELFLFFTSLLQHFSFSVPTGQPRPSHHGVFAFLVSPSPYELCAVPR
Chain of CYP3A4 (P08684 whole entry): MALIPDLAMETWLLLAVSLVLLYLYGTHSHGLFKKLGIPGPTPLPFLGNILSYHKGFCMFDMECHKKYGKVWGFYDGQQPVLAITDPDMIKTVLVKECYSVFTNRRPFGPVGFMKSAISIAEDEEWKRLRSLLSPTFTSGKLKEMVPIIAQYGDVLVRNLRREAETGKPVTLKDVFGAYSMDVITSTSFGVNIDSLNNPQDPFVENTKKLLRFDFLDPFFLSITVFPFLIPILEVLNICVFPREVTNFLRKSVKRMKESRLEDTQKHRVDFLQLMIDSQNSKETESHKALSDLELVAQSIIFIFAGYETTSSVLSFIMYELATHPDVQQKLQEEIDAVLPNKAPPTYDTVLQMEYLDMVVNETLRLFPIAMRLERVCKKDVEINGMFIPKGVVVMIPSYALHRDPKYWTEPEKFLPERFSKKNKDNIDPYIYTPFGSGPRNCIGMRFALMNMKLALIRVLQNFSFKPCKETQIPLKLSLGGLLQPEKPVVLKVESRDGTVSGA
Chain of CYP2C19 (P33261 whole entry): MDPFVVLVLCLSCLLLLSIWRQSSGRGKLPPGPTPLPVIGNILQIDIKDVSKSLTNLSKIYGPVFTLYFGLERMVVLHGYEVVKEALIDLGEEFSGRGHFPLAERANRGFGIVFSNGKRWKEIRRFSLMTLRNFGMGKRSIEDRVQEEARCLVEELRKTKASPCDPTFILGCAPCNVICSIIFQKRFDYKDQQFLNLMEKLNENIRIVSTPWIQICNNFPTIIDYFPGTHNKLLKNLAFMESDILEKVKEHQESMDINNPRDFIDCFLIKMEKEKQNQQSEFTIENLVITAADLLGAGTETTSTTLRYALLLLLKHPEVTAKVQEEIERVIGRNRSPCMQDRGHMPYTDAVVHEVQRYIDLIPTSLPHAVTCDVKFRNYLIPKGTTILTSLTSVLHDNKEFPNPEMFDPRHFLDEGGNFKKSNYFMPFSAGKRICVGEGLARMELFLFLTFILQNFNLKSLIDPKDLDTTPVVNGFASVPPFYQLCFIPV

Cc1ccc(OC2CN(c3cccc(COC(=O)NC(=N)N)c3F)C2)cn1.O=C(O)C(O)C(O)C(=O)O
inhibition in vivo at 0.3 mg/kg [1]: 74%
solubility at 20 h, 130 µM [2]: ≥ 100 µM
activity at 20 min, 5 µM [3]: 99%
activity at 20 min, 5 µM [4]: 91%
activity at 20 min, 5 µM [5]: 99%
activity at 20 min, 5 µM [6]: 95%
activity at 20 min, 5 µM [7]: 85%
inhibition in vivo at 0.3 mg/kg [8]: 92%
AUC [9]: 380 ng·h/mL
half-life [10]: 8.9 h
AUC [11]: 3200 ng·h/mL
half-life [12]: 3.3 h
Vd [13]: 1.06 L/kg
clearance [14]: 5.2 mL/min/kg
Vd [15]: 4.43 L/kg
clearance [16]: 8.9 mL/min/kg
AUC [17]: 5350 ng·h/mL
half-life [18]: 64 h
Vd [19]: 1.39 L/kg
clearance [20]: 0.7 mL/min/kg
AUC [21]: 2320 ng·h/mL
AUC [22]: 297 ng·h/mL
AUC [23]: 4510 ng·h/mL
Cmax [24]: 401 ng/mL
Cmax [25]: 29.9 ng/mL
Cmax [26]: 201 ng/mL
Tmax [27]: 0.8 h
Tmax [28]: 0.8 h
Tmax [29]: 2.7 h
bioavailability [30]: 73%
bioavailability [31]: 78%
bioavailability [32]: 85%
